32 molecules from patent US20230104936A1, “TRPML MODULATORS” (Casma Therapeutics, Inc., priority 2019, published 2023) can be followed below.

Bounds are passed on as bounds.

For this assay, the system named is TFEB. Description: TFEB nuclear translocation assay, HeLa wt cells. The assay is classed as cell-based. Conditions: Homo sapiens, HeLa, 2 h, 2 hrs compound treatment, Table 1 does not say HeLa wt or TRPML1 KO. In short, it runs like this:
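TFEB translocation into the nucleus of HeLa wt cells is scored by high-content immunofluorescence after 2 hrs of compound treatment at 37° C, reported as AC50.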
Molecule `CN(C)S(=O)(=O)c1ccc(S(=O)(=O)Nc2cccc(N3CCC(c4ccc(Cl)cc4F)CC3)c2)cc1` [Compound A-46, N4-{3-[4-(4-chloro-2-fluorophenyl)piperidin-1-yl]phenyl}-N1,N1-dimethylbenzene-1,4-disulfonamide] yielded an AC50 of at least 10 µM.

Turning to `CN(C)S(=O)(=O)c1ccc(S(=O)(=O)Nc2ccccc2N2CCC(c3ccc(Cl)cc3)CC2)cc1` [Compound A-47, N4-{2-[4-(4-chlorophenyl)piperidin-1-yl]phenyl}-N1,N1-dimethylbenzene-1,4-disulfonamide], the AC50 was at most 2 µM.

Molecule `CNC(=O)c1ccc(S(=O)(=O)Nc2ccccc2N2CCC(c3ccc(Cl)cc3F)CC2)cc1` [Compound A-48, 4-({2-[4-(4-chloro-2-fluorophenyl)piperidin-1-yl]phenyl}sulfamoyl)-N-methylbenzamide] gave an AC50 of at least 10 µM.

For the molecule `O=C(c1ccc(S(=O)(=O)Nc2ccccc2N2CCC(c3ccc(Cl)cc3F)CC2)cc1)N1CCCC1` [Compound A-49, N-{2-[4-(4-chloro-2-fluorophenyl)piperidin-1-yl]phenyl}-4-(pyrrolidine-1-carbonyl)benzene-1-sulfonamide], the AC50 was at least 10 µM.

`Cc1nn(S(=O)(=O)c2ccc(S(=O)(=O)N(C)C)cc2)cc1N1CCC(c2ccc(Cl)cc2F)CC1` [Compound A-50, 4-((4-(4-(4-chloro-2-fluorophenyl)piperidin-1-yl)-3-methyl-1H-pyrazol-1-yl)sulfonyl)-N,N-dimethylbenzenesulfonamide] had an AC50 of 2.01 to 8 µM.

`CN(C)S(=O)(=O)c1ccc(S(=O)(=O)Nc2ccccc2N2CCN(c3ncccc3F)CC2)cc1` [Compound A-51, N4-{2-[4-(3-fluoropyridin-2-yl)piperazin-1-yl]phenyl}-N1,N1-dimethylbenzene-1,4-disulfonamide] displayed an AC50 of 2.01 to 8 µM.

On to `CN(C)S(=O)(=O)c1ccc(S(=O)(=O)Nc2ccccc2N2CCN(C3CC3)CC2)cc1` [Compound A-52, N4-[2-(4-cyclopropylpiperazin-1-yl)phenyl]-N1,N1-dimethylbenzene-1,4-disulfonamide], for which the concentration at half-maximal activity (AC50) was at most 2 µM.

In the case of `CN(C)S(=O)(=O)c1ccc(S(=O)(=O)Nc2ccccc2N2CCN(C3CCCCC3)CC2)cc1` [Compound A-53, N4-[2-(4-cyclohexylpiperazin-1-yl)phenyl]-N1,N1-dimethylbenzene-1,4-disulfonamide], the AC50 fell in the range of 2.01 to 8 µM.

For the molecule `CN1CCN(c2ccccc2NS(=O)(=O)c2ccc(S(=O)(=O)N(C)C)cc2)CC1` [Compound A-54, N1,N1-dimethyl-N4-[2-(4-methylpiperazin-1-yl)phenyl]benzene-1,4-disulfonamide], the half-maximal activity concentration (AC50) is at least 10 µM.

Regarding `CN(C)S(=O)(=O)c1ccc(S(=O)(=O)Nc2nn(C)cc2C2CCN(c3ccc(Cl)cc3F)CC2)cc1` [Compound A-55, N1-(4-(1-(4-chloro-2-fluorophenyl)piperidin-4-yl)-1-methyl-1H-pyrazol-3-yl)-N4,N4-dimethylbenzene-1,4-disulfonamide], the AC50 is at most 2 µM.

`CN(C)S(=O)(=O)c1ccc(S(=O)(=O)Nc2ccccc2N2CC(c3ccc(Cl)cc3)C2)cc1` [Compound A-56, N4-{2-[3-(4-chlorophenyl)azetidin-1-yl]phenyl}-N1,N1-dimethylbenzene-1,4-disulfonamide]: the AC50 lay in the range of 2.01 to 8 µM.

`CN(C)S(=O)(=O)c1ccc(S(=O)(=O)Nc2ccccc2N2CCN(c3ccncc3F)CC2)cc1` [Compound A-57, N4-{2-[4-(3-fluoropyridin-4-yl)piperazin-1-yl]phenyl}-N1,N1-dimethylbenzene-1,4-disulfonamide] came in with an AC50 of 2.01 to 8 µM.

Molecule `CN1CC2CN(c3ccccc3NS(=O)(=O)c3ccc(S(=O)(=O)N(C)C)cc3)CC2C1` (centres unmarked) [Compound A-58, N1,N1-dimethyl-N4-(2-{5-methyl-octahydropyrrolo[3,4-c]pyrrol-2-yl}phenyl)benzene-1,4-disulfonamide] registered a half-maximal activity concentration (AC50) of at least 10 µM.

`CN(C)S(=O)(=O)c1ccc(S(=O)(=O)Nc2nc(N3CCN(c4ccc(Cl)cc4F)CC3)n(C)n2)cc1` [Compound A-59, N1-(5-(4-(4-chloro-2-fluorophenyl)piperazin-1-yl)-1-methyl-1H-1,2,4-triazol-3-yl)-N4,N4-dimethylbenzene-1,4-disulfonamide] showed an AC50 of at least 10 µM.

In the case of `CN(C)S(=O)(=O)c1ccc(S(=O)(=O)Nc2ccccc2N2CCC(c3cnn(C)c3)CC2)cc1` [Compound A-60, N1,N1-dimethyl-N4-{2-[4-(1-methyl-1H-pyrazol-4-yl)piperidin-1-yl]phenyl}benzene-1,4-disulfonamide], the AC50 was in the range of 2.01 to 8 µM.

On to `CN1Cc2cc(S(=O)(=O)Nc3ccccc3N3CCC(c4ccc(Cl)cc4F)CC3)ccc2C1=O` [Compound A-61, N-{2-[4-(4-chloro-2-fluorophenyl)piperidin-1-yl]phenyl}-2-methyl-1-oxo-2,3-dihydro-1H-isoindole-5-sulfonamide], for which the AC50 is at least 10 µM.

Take `CN(C)S(=O)(=O)c1ccc(S(=O)(=O)n2cnc(N3CCC(c4ccc(Cl)cc4F)CC3)n2)cc1` [Compound A-62, 4-((3-(4-(4-chloro-2-fluorophenyl)piperidin-1-yl)-1H-1,2,4-triazol-1-yl)sulfonyl)-N,N-dimethylbenzenesulfonamide]: the AC50 lay in the range of 8.01 to 9.99 µM.

With `CN(C)S(=O)(=O)c1ccc(S(=O)(=O)n2c(=O)n(C3CCN(c4ccc(Cl)cc4F)CC3)c3ccccc32)cc1` [Compound A-63, 4-({3-[1-(4-chloro-2-fluorophenyl)piperidin-4-yl]-2-oxo-2,3-dihydro-1H-1,3-benzodiazol-1-yl}sulfonyl)-N,N-dimethylbenzene-1-sulfonamide], the AC50 fell in the range of 2.01 to 8 µM.

On to `CN(C)S(=O)(=O)c1ccc(S(=O)(=O)Nc2nnc(C3CCN(c4ccc(Cl)cc4F)CC3)s2)cc1` [Compound A-64, N1-(5-(1-(4-chloro-2-fluorophenyl)piperidin-4-yl)-1,3,4-thiadiazol-2-yl)-N4,N4-dimethylbenzene-1,4-disulfonamide], for which the AC50 is at least 10 µM.

In the case of `Cc1noc(NS(=O)(=O)c2ccc(S(=O)(=O)N(C)C)cc2)c1C1=CCN(c2ccc(Cl)cc2F)CC1` [Compound A-65, N1-(4-(1-(4-chloro-2-fluorophenyl)-1,2,3,6-tetrahydropyridin-4-yl)-3-methylisoxazol-5-yl)-N4,N4-dimethylbenzene-1,4-disulfonamide], the AC50 is at least 10 µM.

Molecule `CP(=O)(Nc1ccccc1N1CCC(c2ccc(Cl)cc2F)CC1)c1ccccc1` (centres unmarked) [Compound A-66, 4-(4-chloro-2-fluorophenyl)-1-(2-{[methyl(phenyl)phosphoryl]amino}phenyl)piperidine] yielded an AC50 of at least 10 µM.

`CN(C)S(=O)(=O)c1ccc(S(=O)(=O)n2ccn(C3CCN(c4ccc(Cl)cc4F)CC3)c2=O)cc1` [Compound A-67, 4-((3-(1-(4-chloro-2-fluorophenyl)piperidin-4-yl)-2-oxo-2,3-dihydro-1H-imidazol-1-yl)sulfonyl)-N,N-dimethylbenzenesulfonamide] returned an AC50 of at least 10 µM.

`CN(C)S(=O)(=O)c1ccc(S(=O)(=O)Nc2nc(N3CCN(c4ccc(Cl)cc4F)CC3)nn2C)cc1` [Compound A-68, N1-(3-(4-(4-chloro-2-fluorophenyl)piperazin-1-yl)-1-methyl-1H-1,2,4-triazol-5-yl)-N4,N4-dimethylbenzene-1,4-disulfonamide] registered an AC50 of at least 10 µM.

Molecule `CN(C)S(=O)(=O)c1ccc(S(=O)(=O)Nc2ccccc2[C@H]2CC[C@@H](c3ccc(Cl)cc3F)CC2)cc1` [Compound A-69, N1-(2-(4-(4-chloro-2-fluorophenyl)cyclohexyl)phenyl)-N4,N4-dimethylbenzene-1,4-disulfonamide] returned an AC50 of 2.01 to 8 µM.

`CN(C)S(=O)(=O)c1ccc(S(=O)(=O)Nc2ccccc2[C@H]2CC[C@H](c3ccc(Cl)cc3F)CC2)cc1` [Compound A-70, N1-(2-(4-(4-chloro-2-fluorophenyl)cyclohexyl)phenyl)-N4,N4-dimethylbenzene-1,4-disulfonamide] registered a concentration at half-maximal activity (AC50) of at most 2 µM.

For the molecule `CN(C)S(=O)(=O)c1ccc(S(=O)(=O)N2CCC(N3CCC(c4ccc(Cl)cc4F)CC3)C2=O)cc1` (centres unmarked) [Compound A-71, 4-((3-(4-(4-chloro-2-fluorophenyl)piperidin-1-yl)-2-oxopyrrolidin-1-yl)sulfonyl)-N,N-dimethylbenzenesulfonamide], the AC50 was at least 10 µM.

Turning to `Cc1ccc(S(=O)(=O)Nc2ccccc2N2CCC(c3ccc(Cl)cc3F)CC2)cc1` [Compound A-72, N-{2-[4-(4-chloro-2-fluorophenyl)piperidin-1-yl]phenyl}-4-methylbenzene-1-sulfonamide], the AC50 is at most 2 µM.

Consider `O=S(=O)(Nc1ccccc1N1CCC(c2ccc(Cl)cc2F)CC1)c1ccc(Cl)cc1` [Compound A-73, 4-chloro-N-{2-[4-(4-chloro-2-fluorophenyl)piperidin-1-yl]phenyl}benzene-1-sulfonamide], for which the AC50 was at most 2 µM.

In the case of `O=S(=O)(Nc1ccccc1N1CCC(c2ccc(Cl)cc2F)CC1)c1ccc(F)cc1` [Compound A-74, N-{2-[4-(4-chloro-2-fluorophenyl)piperidin-1-yl]phenyl}-4-fluorobenzene-1-sulfonamide], the concentration at half-maximal activity (AC50) lay within 2.01 to 8 µM.

The molecule `Cc1nn(C)c(NS(=O)(=O)c2ccc(S(=O)(=O)N(C)C)cc2)c1C1CCN(c2ccc(Cl)cc2F)CC1` [Compound A-75, N1-(4-(1-(4-chloro-2-fluorophenyl)piperidin-4-yl)-1,3-dimethyl-1H-pyrazol-5-yl)-N4,N4-dimethylbenzene-1,4-disulfonamide] came in with a half-maximal activity concentration (AC50) of at least 10 µM.

`O=S(=O)(Nc1ccccc1N1CCC(c2ccc(Cl)cc2F)CC1)c1ccccc1Cl` [Compound A-76, 2-chloro-N-{2-[4-(4-chloro-2-fluorophenyl)piperidin-1-yl]phenyl}benzene-1-sulfonamide] had an AC50 of at least 10 µM.

Molecule `O=S(=O)(Nc1ccccc1N1CCC(c2ccc(Cl)cc2F)CC1)c1cccc(Cl)c1` [Compound A-77, 3-chloro-N-{2-[4-(4-chloro-2-fluorophenyl)piperidin-1-yl]phenyl}benzene-1-sulfonamide] came in with a concentration at half-maximal activity (AC50) of at most 2 µM.
